# Data: US20210386367A1, “DEVICES AND SYSTEMS FOR GASTROINTESTINAL MICROBIOME DETECTION AND MANIPULATION” (Progenity, Inc., priority 2018, published 2021)
# Where “and” joins values, the source holds several entries; their conditions need not be identical. Identical values can stand only once. Like-named read-outs stand apart in the source and are kept apart here.
# Assays:
# [1] = tested on: Streptococcus spp. spontaneous mutants; assay: organism not typed; format: cell-based
# Method in brief: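 Spontaneous mutants from drug selection plates were tested by CLSI broth microdilution in MHB II with two-fold serial drug dilutions. Inoculum was about 5×10^5 CFU/mL, incubated aerobically at 35° C. for 18-20 hr. MIC was the lowest concentration inhibiting visible growth.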
# [2] = tested on: Streptococcus agalactiae clinical isolates; assay: MIC distribution against clinical isolates; format: cell-based; settings: 20 S. agalactiae isolates
# Method in brief: (§1)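 MIC is the lowest agent concentration preventing growth, determined by broth or agar dilution with serial compound dilutions and incubation under appropriate conditions (e.g., overnight at 37° C.). MIC90 is the concentration inhibiting ≥90% of isolates in the test population.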
# [3] = tested on: Bacteroides fragilis clinical isolates; assay: MIC distribution against clinical isolates; format: cell-based
# Method in brief: as §1
# B. vulgatus ATCC 8482 = assay: Time-kill assay; format: cell-based, Bacteroides vulgatus; settings: 2×, 4×, 8× MIC; 2, 6, 24, 48 hr
# [4] = tested on: Bacteroides spp. spontaneous mutants; assay: Broth microdilution MIC of spontaneous mutants; format: cell-based; settings: for MIC: read-out: MIC
# Method in brief: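 Isolates from drug selection plates were subcultured on agar containing drug at the selection concentration and identified by MALDI, then MIC was determined by CLSI broth microdilution (M100-S28) with serial two-fold dilutions. Plates were pre-reduced 1 h in an anaerobic chamber; final inoculum ~1×10^6 CFU/mL.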
# B. fragilis ATCC 25285 = assay: Broth microdilution MIC (time-kill study); format: cell-based, Bacteroides fragilis
# [5] = S. pneumoniae ATCC 49619, selected on rifaximin 4X MIC, Colony A
# [6] = S. pneumoniae ATCC 49619, selected on rifaximin 4X MIC, Colony B
# [7] = S. pneumoniae ATCC 49619, selected on rifaximin 8X MIC, Colony A
# [8] = S. pneumoniae ATCC 49619, selected on rifaximin 8X MIC, Colony B
# [9] = S. pneumoniae ATCC 49619 Parent
# [10] = S. pyogenes ATCC 49399, selected on rifaximin 4X MIC, Colony A
# [11] = S. pyogenes ATCC 49399, selected on rifaximin 4X MIC, Colony B
# [12] = S. pyogenes ATCC 49399, selected on rifaximin 8X MIC, Colony A
# [13] = S. pyogenes ATCC 49399, selected on rifaximin 8X MIC, Colony B
# [14] = Streptococcus, ATCC13813, S. agaloctiae ATCC 13813, selected on rifaximin 4X MIC, Colony A
# [15] = Streptococcus, ATCC13813, S. agaloctiae ATCC 13813, selected on rifaximin 4X MIC, Colony B
# [16] = Streptococcus, ATCC13813, S. agaloctiae ATCC 13813, selected on rifaximin 8X MIC, Colony A
# [17] = Streptococcus, ATCC13813, S. agaloctiae ATCC 13813, selected on rifaximin 8X MIC, Colony B
# [18] = Streptococcus, ATCC13813, S. agaloctiae ATCC 13813 Parent
# [19] = MIC 8 μg/mL, 30 B. fragilis isolates
# [20] = MIC 16 μg/mL, 30 B. fragilis isolates
# [21] = MIC 32 μg/mL, 30 B. fragilis isolates
# [22] = MIC 64 μg/mL, 30 B. fragilis isolates
# [23] = B. fragilis ATCC 25285, selected on rifaximin 4X MIC, Colony A
# [24] = B. fragilis ATCC 25285, selected on rifaximin 4X MIC, Colony B
# [25] = B. fragilis ATCC 25285, selected on rifaximin 8X MIC, Colony A
# [26] = B. fragilis ATCC 25285, selected on rifaximin 8X MIC, Colony B
# [27] = B. ovatus MMX 3503, selected on rifaximin 4X MIC, Colony A
# [28] = B. ovatus MMX 3503, selected on rifaximin 4X MIC, Colony B
# [29] = B. ovatus MMX 3503, selected on rifaximin 8X MIC, Colony A
# [30] = B. ovatus MMX 3503, selected on rifaximin 8X MIC, Colony B
# [31] = B. vulgatus ATCC 8482, selected on ceftriaxone 4X MIC, Colony A
# [32] = B. vulgatus ATCC 8482, selected on ceftriaxone 4X MIC, Colony B
# [33] = B. vulgatus ATCC 8482, selected on rifaximin 4X MIC, Colony A
# [34] = B. vulgatus ATCC 8482, selected on rifaximin 4X MIC, Colony B
# [35] = B. vulgatus ATCC 8482, selected on rifaximin 8X MIC, Colony A
# [36] = B. vulgatus ATCC 8482, selected on rifaximin 8X MIC, Colony B
# [37] = B. vulgatus ATCC 8482 Parent (Table 50)
# [38] = B. vulgatus ATCC 8482 Parent (Table 54)
# [39] = Bacteroides fragilis, ATCC25285, broth microdilution, read-out: MIC
# [40] = MIC 1 μg/mL, 30 B. fragilis isolates
# [41] = MIC >8 μg/mL, 30 B. fragilis isolates
smiles,measurement,setting,value
CO/N=C(\C(=O)N[C@@H]1C(=O)N2C(C(=O)O)=C(CSc3nc(=O)c(=O)[nH]n3C)CS[C@H]12)c1csc(N)n1 [ceftriaxone],MIC,[1]; [5],0.03 µg/mL
same,MIC,[1]; [6],0.06 µg/mL
same,MIC,[1]; [7],0.03 µg/mL
same,MIC,[1]; [8],0.03 µg/mL
same,MIC,[1]; [9],0.06 µg/mL
same,MIC,[1]; [10],0.008 µg/mL
same,MIC,[1]; [11],0.015 µg/mL
same,MIC,[1]; [12],0.015 µg/mL
same,MIC,[1]; [13],0.008 µg/mL
same,MIC,[1]; S. pyogenes ATCC 49399 Parent,0.015 µg/mL
same,MIC,[1]; [14],0.015 µg/mL
same,MIC,[1]; [15],0.015 µg/mL
same,MIC,[1]; [16],0.015 µg/mL
same,MIC,[1]; [17],0.06 µg/mL
same,MIC,[1]; [18],0.015 µg/mL
same,Cumulative percentage of isolates inhibited at MIC,[2]; MIC 0.03 μg/mL,25.0%
same,Number of test isolates at MIC,[2]; MIC 0.03 μg/mL,5
same,Cumulative percentage of isolates inhibited at MIC,[2]; MIC 0.06 μg/mL,90.0%
same,Number of test isolates at MIC,[2]; MIC 0.06 μg/mL,1.3
same,Cumulative percentage of isolates inhibited at MIC,[2]; MIC […],100.0%
same,Number of test isolates at MIC,[2]; MIC […],2
same,Cumulative percentage of isolates inhibited at MIC,[3]; [19],10.0%
same,Number of test isolates at MIC,[3]; [19],3
same,Cumulative percentage of isolates inhibited at MIC,[3]; [20],40.0%
same,Number of test isolates at MIC,[3]; [20],9
same,Cumulative percentage of isolates inhibited at MIC,[3]; [21],66.7%
same,Number of test isolates at MIC,[3]; [21],8
same,Cumulative percentage of isolates inhibited at MIC,[3]; [22],73.3%
same,Number of test isolates at MIC,[3]; [22],2
same,Cumulative percentage of isolates inhibited at MIC,[3]; listed as CTR,76.7% and 100.0%
same,time-kill kinetics outcome (bactericidal = ≥3 log reduction in CFU per mL),B. vulgatus ATCC 8482,"bactericidal effect was observed at 8×MIC at 6, 24 and 48 hr; at 4×MIC at 6 and 24 hr; and at 2×MIC at 48 hr"
same,MIC,[4]; [23],16 µg/mL
same,MIC,[4]; [24],32 µg/mL
same,MIC,[4]; [25],32 µg/mL
same,MIC,[4]; [26],32 µg/mL
same,MIC,[4]; B. fragilis ATCC 25285 Parent,32 µg/mL
same,MIC,[4]; [27],128 µg/mL
same,MIC,[4]; [28],64 µg/mL
same,MIC,[4]; [29],> 128 µg/mL
same,MIC,[4]; [30],64 µg/mL
same,MIC,[4]; B. ovatus MMX 3503 Parent,128 µg/mL
same,broth microdilution MIC higher than parent,"[4]; B. vulgatus ATCC 8482, one of two isolates selected at 4× the MIC",4 fold
same,MIC,[4]; [31],2 µg/mL
same,MIC,[4]; [32],4 µg/mL
same,MIC,[4]; [33],2 µg/mL
same,MIC,[4]; [34],1 µg/mL
same,MIC,[4]; [35],2 µg/mL
same,MIC,[4]; [36],2 µg/mL
same,MIC,[4]; [37],1 µg/mL
same,MIC,[4]; [38],1 µg/mL
same,MIC,B. fragilis ATCC 25285; B. fragilis MMX 123 ATCC 25285,32 µg/mL
same,MIC,B. fragilis ATCC 25285; [39],32 µg/mL
C[C@@H](O)[C@H]1C(=O)N2C(C(=O)O)=C(S[C@@H]3CN[C@H](C(=O)N(C)C)C3)[C@H](C)[C@H]12 [meropenem],MIC,[1]; [5],0.03 µg/mL
same,MIC,[1]; [6],0.03 µg/mL
same,MIC,[1]; [7],0.03 µg/mL
same,MIC,[1]; [8],0.03 µg/mL
same,MIC,[1]; [9],0.03 µg/mL
same,MIC,[1]; [10],0.002 µg/mL
same,MIC,[1]; [11],0.004 µg/mL
same,MIC,[1]; [12],0.004 µg/mL
same,MIC,[1]; [13],0.004 µg/mL
same,MIC,[1]; S. pyogenes ATCC 49399 Parent,0.004 µg/mL
same,MIC,[1]; [14],0.015 µg/mL
same,MIC,[1]; [15],0.015 µg/mL
same,MIC,[1]; [16],0.015 µg/mL
same,MIC,[1]; [17],0.03 µg/mL
same,MIC,[1]; [18],0.008 µg/mL
same,Cumulative percentage of isolates inhibited at MIC,[2]; MIC 0.015 μg/mL,20.0%
same,Number of test isolates at MIC,[2]; MIC 0.015 μg/mL,4
same,Cumulative percentage of isolates inhibited at MIC,[2]; MIC 0.03 μg/mL,95.0%
same,Number of test isolates at MIC,[2]; MIC 0.03 μg/mL,15
same,Cumulative percentage of isolates inhibited at MIC,[2]; MIC 0.06 μg/mL,100.0%
same,Number of test isolates at MIC,[2]; MIC 0.06 μg/mL,1
same,Cumulative percentage of isolates inhibited at MIC,[3]; [40],80.0%
same,Number of test isolates at MIC,[3]; [40],4
same,Cumulative percentage of isolates inhibited at MIC,[3]; [19],83.3%
same,Number of test isolates at MIC,[3]; [19],1
same,Cumulative percentage of isolates inhibited at MIC,[3]; [41],100.0%
same,Number of test isolates at MIC,[3]; [41],5
same,time-kill kinetics outcome (bactericidal = ≥3 log reduction in CFU per mL),B. vulgatus ATCC 8482,bactericidal effect at 24 and 48 hr at 4× and 8×MIC
same,MIC,[4]; [23],0.03 µg/mL
same,MIC,[4]; [24],0.06 µg/mL
same,MIC,[4]; [25],0.06 µg/mL
same,MIC,[4]; [26],0.06 µg/mL
same,MIC,[4]; B. fragilis ATCC 25285 Parent,0.06 µg/mL
same,MIC,[4]; [27],0.12 µg/mL
same,MIC,[4]; [28],0.12 µg/mL
same,MIC,[4]; [29],0.12 µg/mL
same,MIC,[4]; [30],0.12 µg/mL
same,MIC,[4]; B. ovatus MMX 3503 Parent,0.12 µg/mL
same,MIC,[4]; [31],0.25 µg/mL
same,MIC,[4]; [32],0.25 µg/mL
same,MIC,[4]; [33],0.12 µg/mL
same,MIC,[4]; [34],0.12 µg/mL
same,MIC,[4]; [35],0.25 µg/mL
same,MIC,[4]; [36],0.12 µg/mL
same,MIC,[4]; [37],0.12 µg/mL
same,MIC,[4]; [38],0.12 µg/mL
same,MIC,B. fragilis ATCC 25285; B. fragilis MMX 123 ATCC 25285,0.06 µg/mL
same,MIC,B. fragilis ATCC 25285; [39],0.06 µg/mL
